We go through one molecule from patent US20180133248A1, “T[…] AGENT AND TREATMENT” (priority 2014, published 2018).

This test relates to normal bank blood. In words: In vitro pO2 and hemoglobin saturation of bank blood after oxygen or ozone/oxygen treatment. The settings on record: 5 minutes after gas administration. The procedure: Ozone/oxygen was obtained from a pure (medical grade) oxygen by means of a medical ozone generator (Ozomed, a device manufactured in N.C.S.R., Havana, Cuba), at a concentration of 50 mg ozone/L oxygen (ca. 3.7%).
The ability of ozone/oxygen to in vitro raise pO2 of normal bank blood was compared to that of pure medical oxygen. To each one often paired (5+5) blood samples (5 mL each) contained in closed 10 ml vials, 2.5 mL of pure oxygen or ozone/oxygen mixture respectively were carefully bubbled through. Gasometric analyses were performed in test samples 5 minutes after gas administration and also in control untreated samples.

Consider `O=O` [O2, oxygen], for which the PO2 (5 mL blood, 2.5 mL gas bubbled through, n = 5, control 41 ± 1) amounted to 73 ± 2. For the same molecule, the “PO2 rise (%) (above control)” value (n = 5) was 78%. Under “n = 5, control 60 ± 1”, this molecule came in with an HB saturation of 86 ± 2.
